Measurements: US20100063092A1, “3-CYANO-4-(4-PHENYL-PIPERIDIN-1-YL)-PYRIDIN-2-ONE DERIVATIVES” (Ortho-Mcneil-Janssen Pharmaceuticals, Inc., priority 2007, published 2010)
Read-outs that look alike come from different tables or passages of the source.

Tests used:
human mGluR2 = biological target: T1, human mGluR2 (Homo sapiens, UniProt Q14416); assay: [35S]GTPγS binding assay (PAM assay); type: biochemical
T1 construct: expressed in transfected cells; host or cells: CHO cells (membranes)
From the text: The compounds provided in the present invention are positive allosteric modulators of mGluR2. These compounds appear to potentiate glutamate responses by binding to an allosteric site other than the glutamate binding site. The response of mGluR2 to a concentration of glutamate is increased when compounds of formula (I) are present. Compounds of formula (I) are expected to have their effect substantially at mGluR2 by virtue of their ability to enhance the function of the receptor. The behaviour of positive allosteric modulators tested at mGluR2 using the [^35S]GTPγS binding assay method described below and which is suitable for the identification of such compounds, and more particularly the compounds according to formula (I), are shown in Table 3.
The [^35S]GTPγS binding assay is a functional membrane-based assay used to study G-protein coupled receptor (GPCR) function whereby incorporation of a non-hydrolysable form of GTP, [^35S]GTPγS (guanosine 5′-triphosphate, labelled with […] ^35S), is measured. The G-protein […] catalyzes the exchange of guanosine 5′-diphosphate (GDP) by guanosine triphosphate (GTP) and on activation of the GPCR by an agonist, [^35S]GTPγS, becomes incorporated and cannot be cleaved to continue the exchange cycle (Harper (1998) Current Protocols in Pharmacology 2.6.1-10, John Wiley & Sons, Inc.). […] Here we describe the use of the [^35S]GTPγS binding assay using membranes from cells transfected with the human mGluR2 receptor and adapted from Schaffhauser et al ((2003) Molecular Pharmacology 4:798-810) for the detection of the positive allosteric modulation (PAM) properties of the compounds of this invention.
CHO-cells were cultured to pre-confluence and stimulated with 5 mM butyrate for 24 hours, prior to washing in PBS, and then collection by scraping in homogenisation buffer (50 mM Tris-HCl buffer, pH 7.4, 4° C.). Cell lysates were homogenized briefly (15s) using an ultra-turrax homogenizer. The homogenate was centrifuged at 23 500×g for 10 minutes and the supernatant discarded. The pellet was resuspended in 5 mM Tris-HCl, pH 7.4 and centrifuged again (30 000×g, 20 min, 4° C.). The final pellet was resuspended in 50 mM HEPES, pH 7.4 and stored at −80° C. in appropriate aliquots before use. Protein concentration was determined by the Bradford method (Bio-Rad, USA) with bovine serum albumin as standard.
Measurement of mGluR2 positive allosteric modulatory activity of test compounds in membranes containing human mGluR2 was performed using frozen membranes that were thawed and briefly homogenised prior to pre-incubation in 96-well microplates (15 μg/assay well, 30 minutes, 30° C.) in assay buffer (50 mM HEPES pH 7.4, 100 mM NaCl, 3 mM MgCl2, 50 μM GDP, 10 μg/ml saponin,) with increasing concentrations of positive allosteric modulator (from 0.3 nM to 50 μM) and either a minimal pre-determined concentration of glutamate (PAM assay), or no added glutamate. For the PAM assay, membranes were pre-incubated with glutamate at EC25 concentration, i.e. a concentration that gives 25% of the maximal response glutamate, and is in accordance to published data (Pin et al. (1999) Eur. J. Pharmacol. 375:277-294). After addition of [^35S]GTPγS (0.1 nM, f.c.) to achieve a total reaction volume of 200 μl, microplates were shaken briefly and further incubated to allow [^35S]GTPγS incorporation on activation (30 minutes, 30° C.). The reaction was stopped by rapid vacuum filtration over glass-fibre filter plates (Unifilter 96-well GF/B filter plates, Perkin-Elmer, Downers Grove, USA) microplate using a 96-well plate cell harvester (Filtermate, Perkin-Elmer, USA), and then by washing three times with 300 μl of ice-cold wash buffer (Na2PO4.2H20 10 mM, NaH2PO4.H20 10 mM, pH=7.4). Filters were then air-dried, and 40 μl of liquid scintillation cocktail (Microscint-O) was added to each well, and membrane-bound [^35S]GTPγS was measured in a 96-well scintillation plate reader (Top-Count, Perkin-Elmer, USA). […]

[1] = membranes from CHO cells transfected with human mGluR2, in presence of glutamate at predetermined EC25 concentration, averages of duplicate values of 11-concentration response curves, read-out: GTPgS - hR2 PAM pEC50 (converted)
[2] = compounds of formula (I'), protocol of section D ([35S]GTPγS, human mGluR2, glutamate EC25), read-out: pEC50 (see section D for protocol) (converted)

T1 sequence (Q14416 19-872): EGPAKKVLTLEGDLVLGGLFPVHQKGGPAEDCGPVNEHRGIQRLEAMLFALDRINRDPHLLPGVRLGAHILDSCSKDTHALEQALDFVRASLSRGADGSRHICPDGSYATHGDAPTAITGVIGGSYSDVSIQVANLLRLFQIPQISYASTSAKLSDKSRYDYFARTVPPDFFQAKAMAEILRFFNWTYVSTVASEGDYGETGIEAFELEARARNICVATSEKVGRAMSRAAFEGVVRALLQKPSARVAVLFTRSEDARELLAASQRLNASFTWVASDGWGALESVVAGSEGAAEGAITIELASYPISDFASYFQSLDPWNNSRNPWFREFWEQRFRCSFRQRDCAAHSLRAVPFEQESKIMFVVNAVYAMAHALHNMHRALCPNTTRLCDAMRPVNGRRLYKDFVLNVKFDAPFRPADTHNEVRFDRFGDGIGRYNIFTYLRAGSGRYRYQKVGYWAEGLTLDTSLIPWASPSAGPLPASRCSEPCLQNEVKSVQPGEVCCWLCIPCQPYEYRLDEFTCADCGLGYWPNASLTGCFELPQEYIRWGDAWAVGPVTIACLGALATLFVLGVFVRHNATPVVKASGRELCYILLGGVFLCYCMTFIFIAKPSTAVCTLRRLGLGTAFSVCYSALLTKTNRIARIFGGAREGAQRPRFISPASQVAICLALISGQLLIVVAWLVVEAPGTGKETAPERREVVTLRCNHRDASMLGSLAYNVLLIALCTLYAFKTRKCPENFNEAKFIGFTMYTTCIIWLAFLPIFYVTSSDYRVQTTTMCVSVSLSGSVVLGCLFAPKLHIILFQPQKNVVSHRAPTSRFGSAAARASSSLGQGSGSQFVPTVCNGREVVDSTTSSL

EC50 (human mGluR2; [1]) [nM]	EC50 (human mGluR2; [2]) [nM]	melting point [°C]	SMILES
–	100	–	CCCCn1ccc(N2CCC(O)(c3ccc(Cl)cc3)CC2)c(C#N)c1=O
174	–	–	CCCCn1ccc(N2CCC(F)(c3ccccc3)CC2)c(C#N)c1=O [Compound 2, 1′-Butyl-4-fluoro-2′-oxo-4-phenyl-3,4,5,6,1′,2′-hexahydro-2H-[1,4′]bipyridinyl-3′-carbonitrile]
–	200	–	CCCCn1ccc(N2CCC(O)(c3cccc(Cl)c3)CC2)c(C#N)c1=O
2040	–	103.2	CCCCn1ccc(N2CCC(CO)(c3ccccc3)CC2)c(C#N)c1=O [Compound 4, 1′-Butyl-4-hydroxymethyl-2′-oxo-4-phenyl-3,4,5,6,1′,2′-hexahydro-2H-[1,4′]bipyridinyl-3′-carbonitrile]
–	398	–	CCCCn1ccc(N2CCC(O)(c3ccc(F)cc3)CC2)c(C#N)c1=O
–	501	–	N#Cc1c(N2CCC(O)(c3ccc(F)cc3)CC2)ccn(CC2CC2)c1=O

The next lines start with the compound.

SMILES	EC50 (human mGluR2; [1]) [nM]	EC50 (human mGluR2; [2]) [nM]	melting point [°C]
N#Cc1c(N2CCC(CF)(c3ccccc3)CC2)ccn(CC2CC2)c1=O [Compound 5, 1′-Cyclopropylmethyl-4-fluoromethyl-2′-oxo-4-phenyl-3,4,5,6,1′,2′-hexahydro-2H-[1,4′]bipyridinyl-3′-carbonitrile]	1200	–	–
CCCCn1ccc(N2CCC(CF)(c3ccccc3)CC2)c(C#N)c1=O [Compound 6, 1′-Butyl-4-fluoromethyl-2′-oxo-4-phenyl-3,4,5,6,1′,2′-hexahydro-2H-[1,4′]bipyridinyl-3′-carbonitrile]	447	–	–
CCCCn1ccc(N2CCC(OCCF)(c3ccccc3)CC2)c(C#N)c1=O [Compound 7, 1′-Butyl-4-fluoroethyloxy-2′-oxo-4-phenyl-3,4,5,6,1′,2′-hexahydro-2H-[1,4′]bipyridinyl-3′-carbonitrile]	186	–	–
N#Cc1c(N2CCC(O)(c3ccccc3)CC2)ccn(CC2CC2)c1=O	–	1000	–
N#Cc1c(N2CCC(F)(c3ccccc3)CC2)ccn(CC2CC2)c1=O [Compound 1, 1′-Cyclopropylmethyl-4-fluoro-2′-oxo-4-phenyl-3,4,5,6,1′,2′-hexahydro-2H-[1,4′]bipyridinyl-3′-carbonitrile]	263	–	189.2
N#Cc1c(N2CCC(c3ccccc3)CC2)ccn(CC2CC2)c1=O [Compound 8, 3-cyano-1-cyclopropylmethyl-4-(4-phenyl-piperidin-1-yl)-pyridine-2(1H)-one]	316	–	128
